Drawing on PubChem BioAssay AID256 (DTP/NCI, 2004), this text covers T/C for 20 compounds.

SMILES strings stand for the structures. Several values for one entry are separate records, joined by “and”; a condition that tells them apart may be missing. Equal values may be shown once. Toxic doses and inconclusive results are not listed.

In this assay the test system is CD2F1 mice, L1210 leukemia ip, survival T/C. Description: NCI In Vivo Anticancer Drug Screen. Data for tumor model L1210 Leukemia (intraperitoneal) in CD2F1 (CDF1) mice. The following applies: higher = longer survival. The essentials:
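Activity against a transplanted murine tumor was judged by comparing the compound group with a vehicle group. The outcome in the treated animals was divided by that in the controls.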

The mark [1] stands for this setting: endpoint: mean survival time, dose: 100.0 mg/kg/injection, schedule: Q04DX002 (ip), vehicle: saline with Tween-80.
[2] abbreviates: endpoint: mean survival time, dose: 200.0 mg/kg/injection, schedule: Q04DX002 (ip), vehicle: saline with Tween-80.
Setting [3] is: endpoint: mean survival time, dose: 100.0 mg/kg/injection, schedule: Q01DX001 (ip), vehicle: saline with Tween-80.
Setting [4] is: endpoint: mean survival time, dose: 200.0 mg/kg/injection, schedule: Q01DX001 (ip), vehicle: saline with Tween-80.
Setting [5] is: endpoint: mean survival time, dose: 400.0 mg/kg/injection, schedule: Q01DX001 (ip), vehicle: saline with Tween-80.
The mark [6] stands for this setting: endpoint: mean survival time, dose: 100.0 mg/kg/injection, schedule: Q01DX009 (ip), vehicle: saline with Tween-80.
Where [7] appears, read: endpoint: mean survival time, dose: 200.0 mg/kg/injection, schedule: Q01DX009 (ip), vehicle: saline with Tween-80.
[8] abbreviates: endpoint: mean survival time, dose: 400.0 mg/kg/injection, schedule: Q01DX009 (ip), vehicle: saline with Tween-80.
[9] abbreviates: endpoint: mean survival time, dose: 100.0 mg/kg/injection, schedule: Q04DX003 (ip), vehicle: saline with Tween-80.
[10] abbreviates: endpoint: mean survival time, dose: 200.0 mg/kg/injection, schedule: Q04DX003 (ip), vehicle: saline with Tween-80.
The mark [11] stands for this setting: endpoint: mean survival time, dose: 400.0 mg/kg/injection, schedule: Q04DX003 (ip), vehicle: saline with Tween-80.
Setting [12] is: endpoint: mean survival time, dose: 50.0 mg/kg/injection, schedule: Q01DX009 (ip), vehicle: saline with Tween-80.

For `Cc1cc(N=Nc2ccc(S(=O)(=O)[O-])cc2)cc(C(=O)[O-])c1[O-].NC1CCCCC1N.[Na+].[Pt+4]`, the T/C reads like this: (endpoint: median survival time, dose: 3.12 mg/kg/injection, schedule: Q04DX003 (ip), vehicle: saline with Tween-80) 180 % of control and 287 % of control; (endpoint: median survival time, dose: 6.25 mg/kg/injection, schedule: Q04DX003 (ip), vehicle: saline with Tween-80) 265 % of control and 344 % of control; (endpoint: median survival time, dose: 12.5 mg/kg/injection, schedule: Q04DX003 (ip), vehicle: saline with Tween-80) 244 % of control and 310 % of control; (endpoint: median survival time, dose: 25.0 mg/kg/injection, schedule: Q04DX003 (ip), vehicle: saline with Tween-80) 122 % of control.
In the case of `CCOC(=O)CNC(=O)CCCCSc1ncnc2nc[nH]c12`, the T/C is 95 % of control (endpoint: mean survival time, dose: 20.0 mg/kg/injection, schedule: Q01DX001 (ip), vehicle: saline with Tween-80); 98 % of control (endpoint: mean survival time, dose: 20.0 mg/kg/injection, schedule: Q01DX009 (ip), vehicle: saline with Tween-80); 102 % of control (endpoint: mean survival time, dose: 20.0 mg/kg/injection, schedule: Q04DX003 (ip), vehicle: saline with Tween-80); 97 % of control (endpoint: mean survival time, dose: 40.0 mg/kg/injection, schedule: Q01DX001 (ip), vehicle: saline with Tween-80); 94 % of control (endpoint: mean survival time, dose: 40.0 mg/kg/injection, schedule: Q01DX009 (ip), vehicle: saline with Tween-80); 95 % of control (endpoint: mean survival time, dose: 40.0 mg/kg/injection, schedule: Q04DX003 (ip), vehicle: saline with Tween-80). The T/C was 96 % of control (endpoint: mean survival time, dose: 80.0 mg/kg/injection, schedule: Q01DX009 (ip), vehicle: saline with Tween-80); 95 % of control (endpoint: mean survival time, dose: 80.0 mg/kg/injection, schedule: Q04DX003 (ip), vehicle: saline with Tween-80); 90 % of control (endpoint: mean survival time, dose: 160.0 mg/kg/injection, schedule: Q01DX001 (ip), vehicle: saline with Tween-80); 93 % of control (endpoint: mean survival time, dose: 160.0 mg/kg/injection, schedule: Q01DX009 (ip), vehicle: saline with Tween-80); 95 % of control (endpoint: mean survival time, dose: 160.0 mg/kg/injection, schedule: Q04DX003 (ip), vehicle: saline with Tween-80); 95 % of control (endpoint: mean survival time, dose: 320.0 mg/kg/injection, schedule: Q01DX001 (ip), vehicle: saline with Tween-80). Moreover, the T/C was 96 % of control (endpoint: mean survival time, dose: 320.0 mg/kg/injection, schedule: Q01DX009 (ip), vehicle: saline with Tween-80); 93 % of control (endpoint: mean survival time, dose: 320.0 mg/kg/injection, schedule: Q04DX003 (ip), vehicle: saline with Tween-80); 97 % of control (endpoint: mean survival time, dose: 640.0 mg/kg/injection, schedule: Q01DX001 (ip), vehicle: saline with Tween-80); 100 % of control (endpoint: mean survival time, dose: 640.0 mg/kg/injection, schedule: Q04DX003 (ip), vehicle: saline with Tween-80).
Turning to `CCCCCCCCCCCCOCCOCCOCCOCCO`, the T/C runs as follows: under setting [1], 98 % of control; under setting [2], 102 % of control.
Turning to `CCCCCCCSc1nc2ccccc2s1`, the T/C reads like this: under setting [1], 95 % of control; under setting [2], 98 % of control; (endpoint: mean survival time, dose: 400.0 mg/kg/injection, schedule: Q04DX002 (ip), vehicle: saline with Tween-80) 90 % of control.
Consider `Cc1c2ccncc2cc2c1[nH]c1ccccc12`, for which the T/C was 97 % of control (endpoint: mean survival time, dose: 0.8 mg/kg/injection, schedule: Q03HX008 (iv), vehicle: saline); 97 % of control (endpoint: mean survival time, dose: 1.6 mg/kg/injection, schedule: Q03HX008 (iv), vehicle: saline); 97 % of control (endpoint: mean survival time, dose: 1.6 mg/kg/injection, schedule: Q06HX004 (iv), vehicle: saline); 93 % of control (endpoint: mean survival time, dose: 3.2 mg/kg/injection, schedule: Q06HX004 (iv), vehicle: saline); 95 % of control (endpoint: mean survival time, dose: 3.21 mg/kg/injection, schedule: Q#A X002 (iv), vehicle: saline); 97 % of control (endpoint: mean survival time, dose: 6.3 mg/kg/injection, schedule: Q06HX004 (iv), vehicle: saline). Moreover, the T/C is 101 % of control (endpoint: mean survival time, dose: 6.31 mg/kg/injection, schedule: Q#A X002 (iv), vehicle: saline); 95 % of control (endpoint: mean survival time, dose: 12.5 mg/kg/injection, schedule: Q01DX001 (iv), vehicle: saline); 100 % of control (endpoint: mean survival time, dose: 12.51 mg/kg/injection, schedule: Q#A X002 (iv), vehicle: saline); 98 % of control (endpoint: mean survival time, dose: 25.0 mg/kg/injection, schedule: Q01DX001 (iv), vehicle: saline); 101 % of control (endpoint: mean survival time, dose: 25.1 mg/kg/injection, schedule: Q#A X002 (iv), vehicle: saline).
`O=C(COc1cccc(Cl)c1)NCc1ccc(NC(=O)c2ccc(S(=O)(=O)F)cc2)cc1`: the T/C was 96 % of control under setting [3], 91 % of control under setting [4] and 87 % of control under setting [5].
The like results for `CCOc1ccc(-n2c(O)c(N=Nc3ccccc3OC)c(=O)n(-c3ccc(OC)cc3)c2=S)cc1` were, in that order, 101 % of control, 95 % of control and 94 % of control.
Turning to `CC(C)C1=CC2=CCC3C(C)(C#N)CCCC3(C)C2CC1CC#N` (stereo not given), the T/C by setting is: under setting [6], 92 % of control; under setting [7], 86 % of control; under setting [8], 86 % of control.
Turning to `O=[N+]([O-])c1cc2nsnc2cc1[N+](=O)[O-]`, the T/C under setting [9] is 101 % of control, the T/C under setting [10] was 95 % of control and the T/C under setting [11] is 96 % of control.
Turning to `O=C(Nc1ccc(Br)cn1)Nc1cccc(Cl)c1Cl`, the T/C by setting is: under setting [12], 94 % of control; under setting [6], 101 % of control; under setting [7], 105 % of control.
As to `CCOC(=O)NP(=O)(N1CC1(C)C)N1CC1(C)C` (stereo not given), the T/C reads like this: (endpoint: mean survival time, dose: 45.0 mg/kg/injection, schedule: Q01DX009 (ip), vehicle: saline) 170 % of control; (endpoint: mean survival time, dose: 90.0 mg/kg/injection, schedule: Q01DX009 (ip), vehicle: saline) 232 % of control; (endpoint: mean survival time, dose: 180.0 mg/kg/injection, schedule: Q01DX009 (ip), vehicle: saline) 261 % of control.
`O=[N+]([O-])c1ccc(O/N=C(\CN2CCCC2)c2ccc(Cl)cc2)c([N+](=O)[O-])c1`: the T/C (endpoint: mean survival time, dose: 100.0 mg/kg/injection, schedule: Q01DX001 (ip), vehicle: Klucel (hydroxypropylcellulose) (HPC)) is 90 % of control; the T/C (endpoint: mean survival time, dose: 200.0 mg/kg/injection, schedule: Q01DX001 (ip), vehicle: Klucel (hydroxypropylcellulose) (HPC)) was 87 % of control; the T/C (endpoint: mean survival time, dose: 400.0 mg/kg/injection, schedule: Q01DX001 (ip), vehicle: Klucel (hydroxypropylcellulose) (HPC)) was 98 % of control.
For the compound `COC(=O)Nc1ccc(Cc2ccc(NC(=O)OC)cc2)cc1`, the T/C by setting is: under setting [12], 121 % of control and 104 % of control; under setting [6], 120 % of control and 110 % of control; under setting [8], 87 % of control.
On to `CCOC1C=CCCC1` (stereo not given), for which the T/C is 95 % of control under setting [6]; 97 % of control under setting [9]; 95 % of control under setting [7]; 93 % of control under setting [10]; 97 % of control under setting [11].
As for `O=C(Nc1ccc2ccccc2c1)c1ccc(Cl)cc1Cl`, the T/C under setting [9] was 96 % of control, the T/C under setting [10] is 98 % of control and the T/C under setting [11] is 95 % of control.
`COC(CCCl)c1ccc(Cl)cc1` (stereo not given): the T/C is, setting by setting: (endpoint: mean survival time, dose: 50.0 mg/kg/injection, schedule: Q01DX009 (ip), vehicle: saline) 96 % of control; (endpoint: mean survival time, dose: 100.0 mg/kg/injection, schedule: Q01DX009 (ip), vehicle: saline) 96 % of control; under setting [9], 96 % of control; (endpoint: mean survival time, dose: 200.0 mg/kg/injection, schedule: Q01DX009 (ip), vehicle: saline) 98 % of control; under setting [10], 87 % of control.
On to `C(N=Nc1ccccc1)=C(c1ccccc1)c1ccccc1`, for which the T/C (endpoint: mean survival time, dose: 100.0 mg/kg/injection, schedule: Q04DX002 (ip), vehicle: other) was 107 % of control; the T/C (endpoint: mean survival time, dose: 200.0 mg/kg/injection, schedule: Q04DX002 (ip), vehicle: other) was 103 % of control; the T/C (endpoint: mean survival time, dose: 400.0 mg/kg/injection, schedule: Q04DX002 (ip), vehicle: other) was 103 % of control.
For the compound `CC(C)(c1ccc(O)cc1)c1ccc(O)cc1`, the T/C under setting [6] was 102 % of control, the T/C under setting [7] is 104 % of control and the T/C under setting [8] is 100 % of control.
As to `O/N=C/c1cccc(CC(O)(C(F)(F)F)C(F)(F)F)n1`, the T/C by setting is: under setting [9], 97 % of control; under setting [10], 95 % of control; under setting [11], 95 % of control.
In the case of `Clc1ccc(Oc2ccccc2)cc1`, the T/C runs as follows: under setting [3], 96 % of control; under setting [4], 86 % of control; under setting [5], 91 % of control.
